From US9579408B2, “PET/SPECT agents for applications in biomedical imaging” (Washington University, priority 2011, dated 2017)
Read-outs that look alike come from different tables or passages of the source.

How the values were obtained:
[1] = Quantitative biodistribution in wild-type (WT) mice; conditions: n = 3
Description: All bioassays were performed as described in earlier publications.

[2] = test system: MDR1 Pgp (ABCB1); conditions: mdr1a/1b (-/-) (dKO) mice, n = 3
[3] = rats, n = 3
[4] = NanoSPECT/CT imaging in rat; assay type: in vivo; conditions: i.v. tail-vein, 30 min and 250 min post-injection
Description: (FIG. 4) and 250 min. (FIG. 5) post-injection. The arrows indicate heart uptake.

[5] = rat, i.v. tail-vein, 60 min post-injection
Description: This Example illustrates MicroPET imaging of myocardial perfusion in a rat. In these experiments, ^68Ga-radiopharmaceutical 1B was injected intravenously into a rat tail-vein; MicroPET images were obtained 60 min. (FIG. 6) post-injection.

CC(C)Oc1cccc2c1[O][67Ga+][O]c1c(cccc1OC(C)C)C=NCC(C)(C)CNCCNCC(C)(C)CN=C2.[I-] [Agent 1A, [ENBDMP-3-isopropoxy-PI-^67Ga]^+]
Biodistribution, blood ([1]; 5 min P.I.): 1.26 % ID/g
Biodistribution, blood ([1]; 15 min P.I.): 0.29 % ID/g
Biodistribution, blood ([1]; 60 min P.I.): 0.10 % ID/g
Biodistribution, blood ([1]; 120 min P.I.): 0.07 % ID/g
Biodistribution, brain ([1]; 5 min P.I.): 0.14 % ID/g
Biodistribution, brain ([1]; 15 min P.I.): 0.12 % ID/g
Biodistribution, brain ([1]; 60 min P.I.): 0.09 % ID/g
Biodistribution, brain ([1]; 120 min P.I.): 0.06 % ID/g
Biodistribution, heart ([1]; 5 min P.I.): 9.21 % ID/g
Biodistribution, heart ([1]; 15 min P.I.): 8.37 % ID/g
Biodistribution, heart ([1]; 60 min P.I.): 11.98 % ID/g
Biodistribution, heart ([1]; 120 min P.I.): 9.81 % ID/g
Biodistribution, kidneys ([1]; 5 min P.I.): 81.04 % ID/g
Biodistribution, kidneys ([1]; 15 min P.I.): 83.46 % ID/g
Biodistribution, kidneys ([1]; 60 min P.I.): 93.35 % ID/g
Biodistribution, kidneys ([1]; 120 min P.I.): 67.91 % ID/g
Biodistribution, liver ([1]; 5 min P.I.): 44.95 % ID/g
Biodistribution, liver ([1]; 15 min P.I.): 33.80 % ID/g
Biodistribution, liver ([1]; 60 min P.I.): 7.44 % ID/g
Biodistribution, liver ([1]; 120 min P.I.): 2.90 % ID/g
Biodistribution, blood ([2]; 5 min P.I.): 1.54 % ID/g
Biodistribution, blood ([2]; 15 min P.I.): 0.64 % ID/g
Biodistribution, blood ([2]; 60 min P.I.): 0.34 % ID/g
Biodistribution, blood ([2]; 120 min P.I.): 0.19 % ID/g
Biodistribution, brain ([2]; 5 min P.I.): 1.05 % ID/g
Biodistribution, brain ([2]; 15 min P.I.): 0.65 % ID/g
Biodistribution, brain ([2]; 60 min P.I.): 0.99 % ID/g
Biodistribution, brain ([2]; 120 min P.I.): 0.96 % ID/g
Biodistribution, heart ([2]; 5 min P.I.): 17.02 % ID/g
Biodistribution, heart ([2]; 15 min P.I.): 10.59 % ID/g
Biodistribution, heart ([2]; 60 min P.I.): 14.61 % ID/g
Biodistribution, heart ([2]; 120 min P.I.): 20.29 % ID/g
Biodistribution, kidneys ([2]; 5 min P.I.): 86.12 % ID/g
Biodistribution, kidneys ([2]; 15 min P.I.): 84.19 % ID/g
Biodistribution, kidneys ([2]; 60 min P.I.): 95.60 % ID/g
Biodistribution, kidneys ([2]; 120 min P.I.): 115.23 % ID/g
Biodistribution, liver ([2]; 5 min P.I.): 46.34 % ID/g
Biodistribution, liver ([2]; 15 min P.I.): 46.45 % ID/g
Biodistribution, liver ([2]; 60 min P.I.): 42.54 % ID/g
Biodistribution, liver ([2]; 120 min P.I.): 29.82 % ID/g
Biodistribution, blood ([3]; 5 min P.I.): 0.175 % ID/g
Biodistribution, blood ([3]; 15 min P.I.): 0.041 % ID/g
Biodistribution, blood ([3]; 60 min P.I.): 0.028 % ID/g
Biodistribution, blood ([3]; 120 min P.I.): 0.012 % ID/g
Biodistribution, brain ([3]; 5 min P.I.): 0.024 % ID/g
Biodistribution, brain ([3]; 15 min P.I.): 0.015 % ID/g
Biodistribution, brain ([3]; 60 min P.I.): 0.018 % ID/g
Biodistribution, brain ([3]; 120 min P.I.): 0.016 % ID/g
Biodistribution, heart ([3]; 5 min P.I.): 1.443 % ID/g
Biodistribution, heart ([3]; 15 min P.I.): 1.306 % ID/g
Biodistribution, heart ([3]; 60 min P.I.): 1.386 % ID/g
Biodistribution, heart ([3]; 120 min P.I.): 1.516 % ID/g
Biodistribution, kidneys ([3]; 5 min P.I.): 8.142 % ID/g
Biodistribution, kidneys ([3]; 15 min P.I.): 5.168 % ID/g
Biodistribution, kidneys ([3]; 60 min P.I.): 4.201 % ID/g
Biodistribution, kidneys ([3]; 120 min P.I.): 3.543 % ID/g
Biodistribution, liver ([3]; 5 min P.I.): 2.615 % ID/g
Biodistribution, liver ([3]; 15 min P.I.): 0.657 % ID/g
Biodistribution, liver ([3]; 60 min P.I.): 0.328 % ID/g
Biodistribution, liver ([3]; 120 min P.I.): 0.203 % ID/g
Biodistribution, lung ([3]; 5 min P.I.): 0.814 % ID/g
Biodistribution, lung ([3]; 15 min P.I.): 0.626 % ID/g
Biodistribution, lung ([3]; 60 min P.I.): 0.559 % ID/g
Biodistribution, lung ([3]; 120 min P.I.): 0.591 % ID/g
NanoSPECT/CT image finding [4]: heart uptake

CC(C)Oc1cccc2c1[O][68Ga-3]1345[O]c6c(cccc6OC(C)C)C=[N+]1CC(C)(C)C[NH+]3CC[NH+]4CC(C)(C)C[N+]5=C2.[I-] (stereo not drawn) [Agent 1B, [ENBDMP-3-isopropoxy-PI-^68Ga]^+]
MicroPET image finding [5]: low level of signal from liver compared to the heart
